This note sets out measurements from ChEMBL document CHEMBL1132095, “6-arylamino-5,8-quinolinediones and 7-arylamino-5,8-isoquinolinediones as inhibitors of endothelium-dependent vasorelaxation” (Bioorg Med Chem Lett, 1999).

pEC50: −log10 of the molar value.

The species named for experiment [1] is Rattus norvegicus. Description: Percent of maximal acetylcholine (ACh)-induced vasorelaxation of the rat aorta. The experiment is classed as functional.
The species entered for experiment [2] is Rattus norvegicus. Description: Inhibitory activity on acetylcholine-induced vasorelaxation of phenylephrine-precontracted rat aorta with intact endothelium. In kind it is functional, organism-based.

The term Emax denotes the maximal effect, on the per cent scale that the assay sets. In general, pEC50 refers to −log10 of the EC50, conventionally taken in molar units. Take `O=C1C(Nc2ccc(F)cc2F)=CC(=O)c2ncccc21`: the Emax in the experiment filed under Rattus norvegicus [1] was 94%. In the experiment listed under Rattus norvegicus [2], the pEC50 is 6.54.

In the case of `O=C1C=C(Nc2ccc(F)cc2F)C(=O)c2cnccc21`, in the experiment listed under Rattus norvegicus [1], the Emax stood at 96%. The same compound had a pEC50 in the experiment filed under Rattus norvegicus [2] of 6.37.

Consider `O=C1C=CC(=O)c2ncccc21`, for which, in the experiment listed under Rattus norvegicus [1], the Emax was found to be 80%. Further, in the experiment filed under Rattus norvegicus [2], the pEC50 was 6.28.

In turn, `O=C1C=C(Nc2cccc(F)c2)C(=O)c2cnccc21` yielded an Emax in the experiment listed under Rattus norvegicus [1] of 89%. For the same compound, the pEC50 in the experiment filed under Rattus norvegicus [2] is 6.25.

For `O=C1C(Nc2ccc(C(F)(F)F)cc2)=CC(=O)c2ncccc21`, the Emax in the experiment filed under Rattus norvegicus [1] was 91%. The pEC50 in the experiment listed under Rattus norvegicus [2] is 6.22.

For `O=C1C=C(Nc2ccc(F)c(F)c2F)C(=O)c2cnccc21`, in the experiment listed under Rattus norvegicus [1], the Emax came out at 87%. In addition, in the experiment listed under Rattus norvegicus [2], the pEC50 is 5.95.

`O=C1C(Nc2ccc(F)c(F)c2F)=CC(=O)c2ncccc21` yielded an Emax in the experiment filed under Rattus norvegicus [1] of 72%. Moreover, the pEC50 in the experiment listed under Rattus norvegicus [2] is 6.03.

`O=C1C(Nc2ccccc2)=CC(=O)c2ncccc21` gave an Emax in the experiment listed under Rattus norvegicus [1] of 77%. The pEC50 in the experiment listed under Rattus norvegicus [2] is 6.47.

In the case of `O=C1C(Nc2cccc(F)c2)=CC(=O)c2ncccc21`, the Emax in the experiment filed under Rattus norvegicus [1] came to 85%. In addition, in the experiment listed under Rattus norvegicus [2], the pEC50 is 6.09.

As to `O=C1C(Nc2ccc(I)cc2)=CC(=O)c2ncccc21`, the Emax in the experiment filed under Rattus norvegicus [1] worked out at 89%. The compound also showed a pEC50 in the experiment filed under Rattus norvegicus [2] of 6.67.

`O=C1C=C(Nc2ccc(F)cc2)C(=O)c2cnccc21` came in with an Emax in the experiment filed under Rattus norvegicus [1] of 72%. This compound also gave a pEC50 in the experiment listed under Rattus norvegicus [2] of 5.91.

Compound `O=C1C=C(Nc2ccc(F)c(F)c2)C(=O)c2cnccc21` registered an Emax in the experiment filed under Rattus norvegicus [1] of 81%. For the same compound, the pEC50 in the experiment listed under Rattus norvegicus [2] was 6.19.

The compound `O=C1C=C(Nc2ccc(Cl)cc2)C(=O)c2ccccc21` showed an Emax in the experiment listed under Rattus norvegicus [1] of 98%. In the experiment listed under Rattus norvegicus [2], the pEC50 is 6.66.

`O=C1C(Nc2ccc(F)cc2)=CC(=O)c2ncccc21` yielded an Emax in the experiment filed under Rattus norvegicus [1] of 79%. Moreover, in the experiment filed under Rattus norvegicus [2], the pEC50 is 6.27.

`O=C1C=C(Nc2ccc(Cl)cc2)C(=O)c2cnccc21` yielded an Emax in the experiment filed under Rattus norvegicus [1] of 96%. The compound further gave a pEC50 in the experiment listed under Rattus norvegicus [2] of 6.72.

In the experiment listed under Rattus norvegicus [1], `O=C1C(Nc2ccc(Br)cc2)=CC(=O)c2ncccc21` came in with an Emax of 88%. The compound further gave a pEC50 in the experiment listed under Rattus norvegicus [2] of 6.52.

Compound `O=C1C(Nc2ccc(Cl)cc2)=CC(=O)c2ncccc21` gave an Emax in the experiment filed under Rattus norvegicus [1] of 86%. Also, in the experiment filed under Rattus norvegicus [2], the pEC50 was 6.75.

As for `O=C1C=C(Nc2ccc(F)c(F)c2F)C(=O)c2ccccc21`, in the experiment filed under Rattus norvegicus [1], the Emax worked out at 97%. Moreover, the pEC50 in the experiment listed under Rattus norvegicus [2] was 6.48.

In turn, `O=C1C(Nc2ccc(F)c(F)c2)=CC(=O)c2ncccc21` returned an Emax in the experiment filed under Rattus norvegicus [1] of 92%. Moreover, the pEC50 in the experiment listed under Rattus norvegicus [2] was 6.60.

The compound `O=C1C=C(Nc2ccccc2)C(=O)c2cnccc21` yielded an Emax in the experiment filed under Rattus norvegicus [1] of 93%. The pEC50 in the experiment listed under Rattus norvegicus [2] is 6.36.

In the case of `O=C1C(Nc2ccc(OC(F)(F)F)cc2)=CC(=O)c2ncccc21`, the Emax in the experiment listed under Rattus norvegicus [1] worked out at 88%. This compound also showed a pEC50 in the experiment filed under Rattus norvegicus [2] of 6.22.

Turning to `O=C1C=C(Nc2ccccc2)C(=O)c2ccccc21`, the Emax in the experiment listed under Rattus norvegicus [1] was 98%. Moreover, the pEC50 in the experiment filed under Rattus norvegicus [2] was 6.62.

`O=C1C=C(Nc2ccc(F)cc2)C(=O)c2ccccc21` gave an Emax in the experiment filed under Rattus norvegicus [1] of 98%. The compound further gave a pEC50 in the experiment filed under Rattus norvegicus [2] of 6.44.

As for `O=C1C(Nc2cc(F)cc(F)c2)=CC(=O)c2ncccc21`, the Emax in the experiment listed under Rattus norvegicus [1] amounted to 91%. This compound gave a pEC50 in the experiment filed under Rattus norvegicus [2] of 6.35.

As to `O=C1C=C(Nc2cc(F)cc(F)c2)C(=O)c2cnccc21`, the Emax in the experiment filed under Rattus norvegicus [1] worked out at 94%. In addition, the pEC50 in the experiment listed under Rattus norvegicus [2] was 6.54.

In the case of `O=C1C=CC(=O)c2ccccc21` [NAPHTHOQUINONE], the Emax in the experiment filed under Rattus norvegicus [1] stood at 98%. The same compound gave a pEC50 in the experiment listed under Rattus norvegicus [2] of 6.90.

For the compound `N=C(NCCC[C@H](N)C(=O)O)N[N+](=O)[O-]` [NITROARGININE], the Emax in the experiment listed under Rattus norvegicus [1] is 69%. The compound also showed a pEC50 in the experiment listed under Rattus norvegicus [2] of 5.96.
